Target: Homeodomain-interacting protein kinase 3 (Homo sapiens) (UniProt Q9H422)
Assay: inhibition of human HIPK3 (YAK1) activity – biochemical, Z'-LYTE, FRET, protease-coupled, direct format, dose response (AID 1671294)
Conditions: recombinant HIPK3

Chain of Homeodomain-interacting protein kinase 3 (Homo sapiens) (Q9H422 whole entry, looked up): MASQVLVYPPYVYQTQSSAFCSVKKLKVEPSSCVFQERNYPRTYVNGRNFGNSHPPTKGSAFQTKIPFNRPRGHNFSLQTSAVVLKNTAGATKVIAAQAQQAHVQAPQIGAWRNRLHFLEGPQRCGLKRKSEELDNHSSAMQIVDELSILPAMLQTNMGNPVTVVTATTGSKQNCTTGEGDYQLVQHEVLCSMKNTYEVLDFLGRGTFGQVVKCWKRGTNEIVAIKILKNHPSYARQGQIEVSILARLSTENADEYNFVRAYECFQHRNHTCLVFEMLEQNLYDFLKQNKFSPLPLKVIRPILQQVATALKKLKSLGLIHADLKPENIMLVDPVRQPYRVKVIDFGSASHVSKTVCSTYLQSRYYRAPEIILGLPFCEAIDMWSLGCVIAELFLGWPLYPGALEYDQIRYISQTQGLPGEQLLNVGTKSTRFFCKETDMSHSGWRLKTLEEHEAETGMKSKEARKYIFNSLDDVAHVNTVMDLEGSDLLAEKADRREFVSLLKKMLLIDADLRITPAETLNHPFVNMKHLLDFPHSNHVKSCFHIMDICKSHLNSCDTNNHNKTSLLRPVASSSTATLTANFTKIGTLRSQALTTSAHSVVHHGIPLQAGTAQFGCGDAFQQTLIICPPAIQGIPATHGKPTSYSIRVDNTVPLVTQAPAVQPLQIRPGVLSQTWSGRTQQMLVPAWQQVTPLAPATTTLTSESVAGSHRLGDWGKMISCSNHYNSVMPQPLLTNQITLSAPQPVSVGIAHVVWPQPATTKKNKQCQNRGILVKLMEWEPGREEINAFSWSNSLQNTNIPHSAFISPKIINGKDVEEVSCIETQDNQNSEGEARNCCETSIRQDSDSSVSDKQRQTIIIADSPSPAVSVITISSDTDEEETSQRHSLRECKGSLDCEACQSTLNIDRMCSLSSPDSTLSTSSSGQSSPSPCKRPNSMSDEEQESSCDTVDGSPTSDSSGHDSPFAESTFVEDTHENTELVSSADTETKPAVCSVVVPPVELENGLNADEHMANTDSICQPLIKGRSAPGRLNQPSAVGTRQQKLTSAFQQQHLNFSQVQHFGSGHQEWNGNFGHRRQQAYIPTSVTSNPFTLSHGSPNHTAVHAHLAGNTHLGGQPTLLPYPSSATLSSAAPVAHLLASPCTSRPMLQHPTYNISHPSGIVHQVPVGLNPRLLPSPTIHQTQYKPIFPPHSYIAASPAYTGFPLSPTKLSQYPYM

Brc1c(Br)c(Br)c2n[nH]nc2c1Br
IC50: 5.1 µM

Reference: PubChem BioAssay AID1671294
